Where two headings read alike, the source gives them in different places.
Experiments:
[1] = system: alkaline phosphatase (ALP); details: for Fluo. Z Score: SAR of library and proprietary analogs, AttoPhos assay; for RFU Score Threshold ≥ 800 / Fluorescence Z Score Threshold ≥ 10 / NPA Score Threshold ≥ 5.0 (normalized percent activation): primary screen, C2C12, 4 days; for RFU Score Threshold ≥ 800 / Fluorescence Z Score Threshold ≥ 10 / NPA Score Threshold ≥ 5.0 (normalized percent activation) / RFU Score (10 μM): 10 μM; for RFU Score Threshold ≥ 800: Ex 450/Em 580 nm, rank in brackets not taken; for Fluorescence Z Score Threshold ≥ 10: Z score on DMSO control wells; for NPA Score Threshold ≥ 5.0 (normalized percent activation): normalized against rhBMP4 positive and DMSO negative controls; for RFU Score (10 μM): 154-analog library, C2C12, duplicate
Description: (§1) To identify small-molecule activators of osteoblast differentiation, we measured ALP activity using a fluorescent emission assay as a reporter for enzymatic digestion of ALP substrate in lysates derived from C2C12 myoblasts. […] Therefore, before screening, the assay was calibrated using recombinant human BMP4 protein as a positive control. Compounds were robotically deposited onto 384-well plates and then overlaid by C2C12 cells for a 4-day culture period, followed by lysis and fluorescent substrate assays (FIG. 1A; Table 1). To ensure uniformity, C2C12 cells were maintained in normal culture medium containing 10% fetal bovine serum, and lysis and substrate addition achieved using a microplate multidrop device. The primary screen (Table 2) encompassed greater than 47,000 small molecules tested at a final concentration of 10 μM.
(§2) For the primary screen, library compounds were distributed onto 384-well microplates (Greiner Bio-One 781091) at a final concentration of 10 μM in culture medium using a Perkin Elmer Janus automated workstation and WinPrep Version 4.8.3.315. Positive (rhBMP4, 1 ng/ml, R&D Systems) and negative controls (DMSO, 0.2%) were manually added to each plate by multichannel pipet. C2C12 cells were seeded onto compounds and controls at a density of 2000/well using a Thermo Multidrop Combi reagent dispenser and cultured for 4 days at 37° C., 5% CO2. Culture medium was aspirated using a BioTek EL406 plate washer and cells were lysed in RIPA buffer (Millipore 20-188) at ambient temperature for 10 minutes. 10 μl fluorescent alkaline phosphatase substrate (AttoPhos, Promega S1000) was added to lysates and incubated an additional 10 minutes before measuring the fluorescence (Excitation 450 nm/Emission 580 nm) on a BioTek Synergy Neo2 stacking microplate reader. Plates were processed and relative fluorescence raw values measured in stacks of 10-20. The data were processed using Collaborative Drug Discovery web-based software (CDD Vault) to determine Z score calculated on DMSO control wells and percent activation normalized against positive and negative controls (NPA). Cherry-picked hit candidates were re-tested in concentration response experiments, from which 4 candidates were chosen and purchased for further testing from either ChemBridge or Enamine, based on availability.
(§3) We also purchased a library of 154 structural chemical analogs assembled by ChemBridge Corp. from available screening library compounds.

[2] = system: alkaline phosphatase (ALP); assay: cells; details: Mus musculus; for EC50: C2C12; for activation at 10 µM: C2C12, 96 h
Description: as §1, §2, §3

[3] = read-out: NPA Score Threshold ≥ 5.0 (normalized percent activation)

Compound | RFU Score Threshold ≥ 800 [1] | Fluorescence Z Score Threshold ≥ 10 [1] | NPA Score Threshold ≥ 5.0 (normalized percent activation) [1] | other results
O=C(Nc1ccc(O)cc1)c1cc2cc(Cl)ccc2[nH]c1=O [BT351] | – | – | – | Fluo. Z Score ([1]; C2C12): 1.48 ± 1.26; EC50 [2]: 20.9 µM
CC1(C)OB(c2c(C(=O)O)c(=O)[nH]c3ccc(Cl)cc23)OC1(C)C [BT353] | – | – | – | Fluo. Z Score ([1]; C2C12): 3.15 ± 0.34; EC50 [2]: 5.31 µM
c1ccc2c(c1)nc(NC1CCCC1)c1nncn12 [RU-0007138] | Below Threshold | 17.92 (10) | Below Threshold | –
COC(=O)c1ccc(NC(=O)c2c3c(nn2C2CCS(=O)(=O)C2)CCC3)cc1 (stereo not shown) [RU-0159762] | 855 (22) | 21.33 (6) | Below Threshold | –
CC(C)N1CCC(SCc2ccc(F)cc2C#N)C1=O (stereo not shown) [RU-0201425] | Below Threshold | Below Threshold | – | activation at 10 µM [2, 3]: 5.69%
CC1(C)C(=O)NCCN1C(=O)/C=C(/c1ccc(Cl)cc1)C(F)(F)F [RU-0213635] | 1170 (5) | 15.00 (14) | Below Threshold | –
Cc1cc(C(=O)NC2(C#N)CC2)ccc1NC(=O)CC(C)C [RU-0213672] | 1040 (9) | 12.15 (20) | Below Threshold | –
O=C(NC1CCN(c2ccc(F)cc2)CC1)N(CC1CCOC1)C1CC1 (stereo not shown) [RU-0219256] | Below Threshold | Below Threshold | – | activation at 10 µM [2, 3]: 5.69%
CCCN(C)CC1CCN(C(C)C(=O)Nc2ccc(C(F)(F)F)cc2)C1 (stereo not shown) [RU-0219355] | 819 (28) | Below Threshold | – | activation at 10 µM [2, 3]: 6.14%
Cc1cc(C)c2[nH]c(=O)c(-c3c(-c4ccccc4)ncn3CCCO)cc2c1 [RU-0220396] | – | – | – | Fluo. Z Score ([1]; C2C12): −0.3 ± 0.20; EC50 [2]: 2.63 µM
CCC(C)(C)C(=O)N1CCC(CO)(CCOc2ccccc2)CC1 [RU-0220454] | 811 (31) | Below Threshold | Below Threshold | –
CO[C@H]1CN(Cc2cccc(Cl)c2Cl)CC[C@H]1N [RU-0221236] | Below Threshold | Below Threshold | – | activation at 10 µM [2, 3]: 5.13%
Cc1ccc(CN2CCN(Cc3ccccc3CO)CC2)n1-c1cccnc1 [RU-0221380] | 922 (13) | 16.89 (11) | Below Threshold | –
O=C(NC1CC1)C1CCCN(C2CCN(c3ccc(C(F)(F)F)cn3)CC2)C1 (stereo not shown) [RU-0221613] | Below Threshold | Below Threshold | – | activation at 10 µM [2, 3]: 5%
c1ccc(-c2nc[nH]c2-c2ccccc2Cn2cccn2)cc1 [RU-0222072] | – | – | – | RFU Score (10 μM) [1]: 425; activation at 10 µM [2]: 5.05%
CC(C)c1nnc(CN2C[C@H]3CC=CC[C@H]3C2)o1 [RU-0223925] | 1120 (6) | 18.94 (8) | – | activation at 10 µM [2, 3]: 11.2%
CN1CCC2(CC1)CN(C(=O)COCC1CCCO1)CCCN2C (stereo not shown) [RU-0224115] | 900 (17) | Below Threshold | Below Threshold | –
Cc1c(-c2ccccc2F)[nH]c2ccc(CNS(=O)(=O)N3CCCC3)cc12 [RU-0225107] | 805 (34) | Below Threshold | – | activation at 10 µM [2, 3]: 5.07%
O=C(c1ccc2c(c1)OCO2)C1CCCN(C(=O)c2cnn(Cc3ccccc3)c2)C1 (stereo not shown) [RU-0227215] | 1310 (4) | 27.39 (4) | Below Threshold | –
OCc1ccccc1-c1ccc(NC2CCCC2)nn1 [RU-0227303] | Below Threshold | 13.68 (18) | Below Threshold | –
Cc1cc(C)c2[nH]c(=O)c(CN3CCC4(CCCNC4)C3)cc2c1 (stereo not shown) [RU-0227342] | – | – | – | RFU Score (10 μM) [1]: 591; activation at 10 µM [2]: 11%
Cc1cc(C)c2[nH]c(=O)c(CN3CCC4(CCOCC4)CC3)cc2c1 [RU-0227345] | – | – | – | RFU Score (10 μM) [1]: 384; activation at 10 µM [2]: 3.6%
CC(=O)NCCC1CCCCN1Cc1cc2cc(C)cc(C)c2[nH]c1=O (stereo not shown) [RU-0227648] | – | – | – | RFU Score (10 μM) [1]: 494; activation at 10 µM [2]: 7.48%
O=C(c1[nH]cnc1-c1ccccc1)N1CC[C@H](CO)[C@H](O)C1 [RU-0227868] | – | – | – | RFU Score (10 μM) [1]: 505; activation at 10 µM [2]: 7.88%

Compound | RFU Score Threshold ≥ 800 [1] | Fluorescence Z Score Threshold ≥ 10 [1] | NPA Score Threshold ≥ 5.0 (normalized percent activation) [1] | other results
COc1cccc(C2CCN(c3ncnc4c3CCNC4)C2)c1OC (stereo not shown) [RU-0227959] | 815 (30) | Below Threshold | Below Threshold | –
Cc1cc(C)c2[nH]c(=O)c(CN3CCOC(CN)C3)cc2c1 (stereo not shown) [RU-0228809] | – | – | – | RFU Score (10 μM) [1]: 341; activation at 10 µM [2]: 1.81%
CC1CCN(C(=O)COc2ccccc2-c2[nH]cnc2-c2ccccc2)CC1 [RU-0228904] | – | – | – | RFU Score (10 μM) [1]: 590; activation at 10 µM [2]: 10.9%
Cc1ccccc1N1CCN(C(=O)c2ccc(C#CC(C)(C)O)o2)C(C)C1 (stereo not shown) [RU-0228950] | 921 (14) | 15.58 (13) | Below Threshold | –
OCc1ccc(CN2CCCC(COc3ccccc3F)C2)o1 (stereo not shown) [RU-0229103] | 1980 (2) | 46.85 (2) | – | activation at 10 µM [2, 3]: 6.82%
COc1ccc(-n2c(Cc3cccnc3)n[nH]c2=O)c(C)c1 [RU-0230205] | 1060 (8) | 19.99 (7) | Below Threshold | –
CN(C)CCC1CN(C(=O)c2[nH]cnc2-c2ccccc2)CCO1 (stereo not shown) [RU-0231240] | – | – | – | RFU Score (10 μM) [1]: 596; activation at 10 µM [2]: 11.1%
COc1ccc(-c2[nH]cnc2-c2ccccc2)cc1CN(C)C [RU-0231652] | – | – | – | RFU Score (10 μM) [1]: 299; activation at 10 µM [2]: 0.62%
Cc1ccccc1OCCCN(C)c1nc(-c2cccnc2)nc2c1CNC2 [RU-0231961] | Below Threshold | Below Threshold | – | activation at 10 µM [2, 3]: 5.5%
CCCc1ccc(-c2ccc(C(=O)N3C[C@@H](N)C[C@H]3C(=O)NC)cc2)cc1 [RU-0232318] | 804 (35) | Below Threshold | Below Threshold | –
Cc1nc[nH]c1CN1CCOc2c(O)cc(-c3cccc(Cl)c3)cc2C1 [RU-0236543] | 821 (27) | Below Threshold | Below Threshold | –
O[C@@H]1CNCC[C@H]1CNCc1ccccc1-c1ccccc1 [RU-0236855] | 810 (32) | Below Threshold | Below Threshold | –
CSc1ncc(C(=O)NCc2cc(C)cc3c(C)c(C)[nH]c23)cn1 [RU-0239453] | 809 (33) | Below Threshold | Below Threshold | –
CCC(OC)C(=O)NCc1ccc2[nH]c(-c3ccccc3F)c(C)c2c1 (stereo not shown) [RU-0244068] | 836 (26) | Below Threshold | Below Threshold | –
Cc1ccc(OCCN(C)Cc2ccncc2)c(C)c1 [RU-0244443] | 818 (29) | Below Threshold | Below Threshold | –
O=C(N[C@H]1CN[C@H](C(=O)NCCCn2ccnc2)C1)c1cccc(Cl)c1 [RU-0245007] | 993 (12) | 14.31 (17) | Below Threshold | –
c1ccc(CC2CCN(Cc3cc4n(n3)CCCNC4)C2)cc1 (stereo not shown) [RU-0246723] | 873 (20) | 10.91 (23) | Below Threshold | –
Cc1nc(CCN)cc(N2CCCC2c2nonc2C)n1 (stereo not shown) [RU-0250475] | 879 (19) | Below Threshold | Below Threshold | –
CN(Cc1cccc2ncccc12)CC1CCOC1 (stereo not shown) [RU-0252111] | 1010 (10) | 16.48 (12) | Below Threshold | –
CCCc1nc(C)c(CNC(=O)C2CCOC2)s1 (stereo not shown) [RU-0254439] | Below Threshold | 14.37 (16) | Below Threshold | –
CCOC(=O)c1n[nH]cc1[C@@H]1C[C@H](NC(C)=O)C[C@H](CC(C)C)O1 [RU-0257787] | Below Threshold | 12.09 (21) | Below Threshold | –
Cc1cccc(-c2ncc(CN3CCCC(Cn4ccnc4C)C3)cn2)c1 (stereo not shown) [RU-0261573] | 857 (21) | 10.31 (24) | Below Threshold | –
CCNC(=O)N1CCc2c(cnc(C)c2-c2noc(-c3ccc(C)cc3)n2)C1 [RU-0265172] | 840 (25) | 18.70 (9) | Below Threshold | –
N-(3-isoquinolin-5-ylbenzyl)propanamide [RU-0248250] | 1000 (11) | 24.29 (5) | Below Threshold | EC50 ([1]; read-out: Measured EC50, compounds validated in secondary screen, C2C12): > 40 µM
